The source made the active and inactive calls. The calls are words filed in the database; no cut-off is given here.
How the values were obtained:
MCF7 [1] = test: Cytotoxicity against human MCF7 cells assessed as cell viability at 20 uM after 24 hrs by MTT assay (Rvb =100%); type: functional; settings: MCF7, 24 h, read-out: Activity
[2] = biological target: T1, Inhibitor of nuclear factor kappa-B kinase subunit alpha (Homo sapiens) (UniProt O15111); test: Inhibition of human IKK expression in human MCF7 cells after 24 hrs by Western blot analysis; type: cell-based
T1 sequence (whole entry): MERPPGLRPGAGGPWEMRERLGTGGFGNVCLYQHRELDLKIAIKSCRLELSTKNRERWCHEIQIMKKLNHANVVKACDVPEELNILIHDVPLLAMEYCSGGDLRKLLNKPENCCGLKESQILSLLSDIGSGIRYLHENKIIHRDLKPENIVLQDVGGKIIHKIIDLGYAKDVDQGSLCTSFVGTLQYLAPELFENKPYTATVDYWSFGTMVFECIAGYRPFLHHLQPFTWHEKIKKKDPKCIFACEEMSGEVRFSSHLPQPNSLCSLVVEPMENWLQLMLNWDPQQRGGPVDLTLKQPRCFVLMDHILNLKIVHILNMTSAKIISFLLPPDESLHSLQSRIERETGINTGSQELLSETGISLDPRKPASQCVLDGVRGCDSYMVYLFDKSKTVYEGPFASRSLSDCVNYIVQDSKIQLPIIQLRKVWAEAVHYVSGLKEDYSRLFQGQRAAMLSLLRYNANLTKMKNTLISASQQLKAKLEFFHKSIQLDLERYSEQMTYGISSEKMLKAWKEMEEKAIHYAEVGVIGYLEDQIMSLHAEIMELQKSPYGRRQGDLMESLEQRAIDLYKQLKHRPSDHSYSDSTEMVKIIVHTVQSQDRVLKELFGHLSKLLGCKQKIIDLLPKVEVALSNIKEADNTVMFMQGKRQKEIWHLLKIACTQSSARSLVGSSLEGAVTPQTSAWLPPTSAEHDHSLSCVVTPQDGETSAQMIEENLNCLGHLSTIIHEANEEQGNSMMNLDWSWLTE

MCF7 [3] = test: Induction of apoptosis in human MCF7 cells assessed as increase in caspase-3 expression by Western blot analysis; type: functional, cell-based
Caspase-3 = biological target: T2, Caspase-3 (Homo sapiens, UniProt P42574); test: Binding affinity to procaspase-3 (unknown origin)
T2 sequence (P42574 whole entry): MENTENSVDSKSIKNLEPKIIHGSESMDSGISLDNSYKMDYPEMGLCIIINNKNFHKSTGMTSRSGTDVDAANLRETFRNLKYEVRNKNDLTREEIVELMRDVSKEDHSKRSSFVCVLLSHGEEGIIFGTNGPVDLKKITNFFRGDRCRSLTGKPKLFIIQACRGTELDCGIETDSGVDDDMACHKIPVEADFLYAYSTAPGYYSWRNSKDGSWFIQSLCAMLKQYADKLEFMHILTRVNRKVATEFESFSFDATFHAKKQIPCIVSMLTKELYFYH

MCF7 [4] = test: Induction of apoptosis in human MCF7 cells assessed as increase in caspase-9 expression by Western blot analysis; type: functional, cell-based
MCF7 [5] = test: Induction of apoptosis in human MCF7 cells assessed as increase in caspase-8 gene expression by RT-PCR analysis; type: functional, cell-based
MCF7 [6] = test: Effect on phosphorylation of Akt in human MCF7 cells at 20 to 60 uM by Western blot analysis; type: cell-based
MCF7 [7] = test: Cytotoxicity against human MCF7 cells assessed as cell viability after 24 to 36 hrs by MTT assay; type: functional, cell-based
MCF7 [8] = test: Induction of apoptosis in human MCF7 cells assessed as increase in caspase-3 gene expression by RT-PCR analysis; type: functional, cell-based
MCF7 [9] = test: Downregulation of PI3K gene expression in human MCF7 cells at 20 to 60 uM by RT-PCR analysis; type: functional, cell-based
MCF7 [10] = test: Downregulation of PI3K protein expression in human MCF7 cells at 20 to 60 uM by Western blot analysis; type: functional, cell-based
MCF7 [11] = test: Inhibition of P65 protein expression in human MCF7 cells after 24 hrs by Western blot analysis; type: functional, cell-based
MCF7 [12] = test: Induction of apoptosis in human MCF7 cells assessed as down-regulation of Bcl-2 protein expression at 20 to 60 uM after 24 hrs by Western blot analysis; type: functional, cell-based
[13] = biological target: T1, Inhibitor of nuclear factor kappa-B kinase subunit alpha (Homo sapiens); test: Inhibition of human IKKalpha activation in human MCF7 cells by Western blot analysis; type: cell-based
MCF7 [14] = test: Induction of apoptosis in human MCF7 cells assessed as increase in mitochondrial Apaf-1 release at 20 to 60 uM after 24 hrs by Western blot analysis; type: functional, cell-based
[15] = biological target: Apoptosis regulator Bcl-2 (Homo sapiens, UniProt P10415); test: Binding affinity to Bcl-2 (unknown origin)
Apoptosis regulator Bcl-2, sequence (P10415 whole entry): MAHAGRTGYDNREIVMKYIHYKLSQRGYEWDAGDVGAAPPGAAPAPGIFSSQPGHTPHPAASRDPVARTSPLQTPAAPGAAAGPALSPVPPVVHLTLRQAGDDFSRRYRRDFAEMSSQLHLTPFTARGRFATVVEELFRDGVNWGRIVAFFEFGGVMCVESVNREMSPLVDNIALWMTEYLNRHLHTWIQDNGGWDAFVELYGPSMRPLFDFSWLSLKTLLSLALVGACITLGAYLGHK

MCF7 [16] = test: Cytotoxicity against human MCF7 cells assessed as cell viability at 20 uM after 36 hrs by MTT assay (Rvb =100%); type: functional; settings: MCF7, 36 h, read-out: Activity
MCF7 [17] = test: Cytotoxicity against human MCF7 cells assessed as cell viability at 20 uM by MTT assay; type: functional, cell-based; settings: TDE = time-dependent effect
MCF7 [18] = test: Induction of apoptosis in human MCF7 cells assessed as increase in caspase-9 gene expression by RT-PCR analysis; type: functional, cell-based
MCF7 [19] = test: Inhibition of P50 protein expression in human MCF7 cells after 24 hrs by Western blot analysis; type: functional, cell-based
MCF7 [20] = test: Induction of apoptosis in human MCF7 cells assessed as increase in DNA fragmentation […] by agarose gel electrophoresis; type: functional, cell-based
MCF7 [21] = test: Cytotoxicity against human MCF7 cells assessed as cell viability at 40 uM after 36 hrs by MTT assay (Rvb =100%); type: functional; settings: MCF7, 36 h, read-out: Activity
MCF7 [22] = test: Induction of apoptosis in human MCF7 cells assessed as increase in mitochondrial cytochrome C release at 20 to 60 uM after 24 hrs by Western blot analysis; type: functional, cell-based
MCF7 [23] = test: Downregulation of Akt gene expression in human MCF7 cells at 20 to 60 uM by RT-PCR analysis; type: functional, cell-based
MCF7 [24] = test: Cytotoxicity against human MCF7 cells assessed as cell viability at 40 uM after 24 hrs by MTT assay (Rvb =100%); type: functional; settings: MCF7, 24 h, read-out: Activity
MCF7 [25] = test: Induction of apoptosis in human MCF7 cells assessed as increase in caspase-8 expression by Western blot analysis; type: functional, cell-based
MCF7 [26] = test: Induction of apoptosis in human MCF7 cells assessed as up-regulation of Bax protein expression at 20 to 60 uM after 24 hrs by Western blot analysis; type: functional, cell-based
MCF7 [27] = test: Induction of apoptosis in human MCF7 cells assessed as increase in DNA damage after 24 hrs by Hoechst staining based inverted fluorescent microscopy; type: functional, cell-based
MCF7 [28] = test: Cytotoxicity against human MCF7 cells assessed as cell viability at 60 uM after 24 hrs by MTT assay (Rvb =100%); type: functional; settings: MCF7, 24 h, read-out: Activity
[29] = biological target: Nuclear factor NF-kappa-B complex (Homo sapiens) (UniProt Q00653+P19838+Q04206); test: Inhibition of NF-kappaB activation in human MCF7 cells; type: cell-based
Nuclear factor NF-kappa-B complex (Homo sapiens), sequence (P19838 whole entry, looked up): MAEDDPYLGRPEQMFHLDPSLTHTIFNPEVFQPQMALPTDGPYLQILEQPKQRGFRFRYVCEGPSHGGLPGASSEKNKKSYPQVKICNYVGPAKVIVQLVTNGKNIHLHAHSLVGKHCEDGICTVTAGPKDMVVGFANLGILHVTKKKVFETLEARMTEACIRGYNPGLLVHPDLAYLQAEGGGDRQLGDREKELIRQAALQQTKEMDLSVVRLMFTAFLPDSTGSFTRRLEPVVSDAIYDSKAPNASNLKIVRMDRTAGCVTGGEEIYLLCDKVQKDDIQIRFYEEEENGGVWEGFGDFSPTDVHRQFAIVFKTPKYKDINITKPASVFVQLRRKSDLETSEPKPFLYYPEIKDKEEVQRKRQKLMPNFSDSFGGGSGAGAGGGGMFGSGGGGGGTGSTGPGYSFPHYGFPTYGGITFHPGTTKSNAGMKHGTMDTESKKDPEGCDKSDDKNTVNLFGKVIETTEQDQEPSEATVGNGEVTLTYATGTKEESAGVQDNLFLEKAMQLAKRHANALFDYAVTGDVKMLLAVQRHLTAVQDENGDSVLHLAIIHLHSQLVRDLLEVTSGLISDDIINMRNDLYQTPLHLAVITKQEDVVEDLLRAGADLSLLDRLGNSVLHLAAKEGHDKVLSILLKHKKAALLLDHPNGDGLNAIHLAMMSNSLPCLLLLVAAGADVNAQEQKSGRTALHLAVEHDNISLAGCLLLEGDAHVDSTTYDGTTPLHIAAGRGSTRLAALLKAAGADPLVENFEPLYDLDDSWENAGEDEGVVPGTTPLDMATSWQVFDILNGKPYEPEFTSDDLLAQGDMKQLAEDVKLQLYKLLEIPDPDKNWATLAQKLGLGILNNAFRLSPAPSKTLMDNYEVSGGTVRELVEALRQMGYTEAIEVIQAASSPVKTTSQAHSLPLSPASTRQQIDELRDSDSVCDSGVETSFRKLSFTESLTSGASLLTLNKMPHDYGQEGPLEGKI
Nuclear factor NF-kappa-B complex (Homo sapiens), sequence (Q00653 whole entry, looked up): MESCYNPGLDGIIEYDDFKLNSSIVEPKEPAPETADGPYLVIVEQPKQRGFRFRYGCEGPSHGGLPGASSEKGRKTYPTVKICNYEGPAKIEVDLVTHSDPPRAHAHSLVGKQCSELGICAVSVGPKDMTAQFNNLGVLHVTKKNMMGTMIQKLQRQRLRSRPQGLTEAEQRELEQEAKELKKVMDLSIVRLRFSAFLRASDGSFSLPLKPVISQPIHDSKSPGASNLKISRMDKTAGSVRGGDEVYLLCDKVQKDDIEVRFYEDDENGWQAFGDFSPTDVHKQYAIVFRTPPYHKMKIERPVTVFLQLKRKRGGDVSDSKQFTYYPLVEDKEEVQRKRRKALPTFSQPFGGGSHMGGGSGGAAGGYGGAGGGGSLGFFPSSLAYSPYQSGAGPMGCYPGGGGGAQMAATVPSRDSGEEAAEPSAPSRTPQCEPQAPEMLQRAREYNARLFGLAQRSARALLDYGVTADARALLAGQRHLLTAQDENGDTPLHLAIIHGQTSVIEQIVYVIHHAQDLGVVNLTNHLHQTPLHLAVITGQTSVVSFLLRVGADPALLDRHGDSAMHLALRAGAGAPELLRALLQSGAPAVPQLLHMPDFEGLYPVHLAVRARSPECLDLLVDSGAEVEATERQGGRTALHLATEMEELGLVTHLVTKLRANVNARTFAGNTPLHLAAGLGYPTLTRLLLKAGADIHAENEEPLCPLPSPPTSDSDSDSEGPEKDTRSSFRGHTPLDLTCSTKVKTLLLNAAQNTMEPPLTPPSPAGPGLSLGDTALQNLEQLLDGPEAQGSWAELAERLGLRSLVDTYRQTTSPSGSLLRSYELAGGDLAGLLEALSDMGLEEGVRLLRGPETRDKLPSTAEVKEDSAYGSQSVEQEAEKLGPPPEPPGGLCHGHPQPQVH
Nuclear factor NF-kappa-B complex (Homo sapiens), sequence (Q04206 whole entry, looked up): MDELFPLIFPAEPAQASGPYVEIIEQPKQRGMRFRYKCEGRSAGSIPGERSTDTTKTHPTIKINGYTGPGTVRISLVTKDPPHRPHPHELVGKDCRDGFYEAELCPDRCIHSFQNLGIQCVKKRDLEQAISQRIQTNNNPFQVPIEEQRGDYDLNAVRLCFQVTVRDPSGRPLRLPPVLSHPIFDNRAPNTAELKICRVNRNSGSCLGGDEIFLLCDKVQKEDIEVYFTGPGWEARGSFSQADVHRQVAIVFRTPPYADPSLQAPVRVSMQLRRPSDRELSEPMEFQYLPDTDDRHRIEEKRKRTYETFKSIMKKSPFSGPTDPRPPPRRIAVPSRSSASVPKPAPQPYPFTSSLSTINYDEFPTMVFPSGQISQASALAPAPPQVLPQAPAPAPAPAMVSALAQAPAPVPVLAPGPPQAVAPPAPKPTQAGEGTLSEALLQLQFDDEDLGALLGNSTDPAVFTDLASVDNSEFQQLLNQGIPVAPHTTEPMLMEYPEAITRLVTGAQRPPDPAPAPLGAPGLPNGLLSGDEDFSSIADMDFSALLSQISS

MCF7 [30] = test: Induction of apoptosis in human MCF7 cells assessed as up-regulation of Bax gene expression at 20 to 60 uM after 24 hrs by RT-PCR analysis; type: functional, cell-based
[31] = biological target: T3, Inhibitor of nuclear factor kappa-B kinase subunit beta (Homo sapiens) (UniProt O14920); test: Inhibition of human IKKbeta activation in human MCF7 cells by Western blot analysis; type: cell-based
T3 sequence (whole entry): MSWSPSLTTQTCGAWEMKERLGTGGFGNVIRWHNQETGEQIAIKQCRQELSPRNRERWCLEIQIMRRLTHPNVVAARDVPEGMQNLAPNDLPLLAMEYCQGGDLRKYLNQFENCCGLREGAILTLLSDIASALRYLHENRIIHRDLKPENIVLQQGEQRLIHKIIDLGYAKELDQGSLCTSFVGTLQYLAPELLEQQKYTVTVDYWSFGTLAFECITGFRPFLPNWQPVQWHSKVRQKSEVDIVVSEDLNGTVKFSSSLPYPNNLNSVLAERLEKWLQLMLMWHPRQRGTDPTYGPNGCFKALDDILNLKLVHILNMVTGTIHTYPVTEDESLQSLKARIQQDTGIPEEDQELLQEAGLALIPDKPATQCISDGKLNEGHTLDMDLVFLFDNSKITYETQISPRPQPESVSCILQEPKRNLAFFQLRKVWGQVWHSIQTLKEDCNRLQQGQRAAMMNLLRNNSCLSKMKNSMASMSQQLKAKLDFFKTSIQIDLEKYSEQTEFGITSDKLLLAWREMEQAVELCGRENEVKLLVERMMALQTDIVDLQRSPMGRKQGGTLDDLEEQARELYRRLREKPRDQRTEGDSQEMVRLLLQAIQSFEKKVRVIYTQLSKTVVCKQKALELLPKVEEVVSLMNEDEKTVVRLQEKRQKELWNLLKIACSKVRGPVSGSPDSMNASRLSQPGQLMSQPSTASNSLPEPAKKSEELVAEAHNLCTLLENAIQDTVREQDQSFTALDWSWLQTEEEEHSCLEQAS

MCF7 [32] = test: Downregulation of Akt protein expression in human MCF7 cells at 20 to 60 uM by Western blot analysis; type: functional, cell-based
MCF7 [33] = test: Cytotoxicity against human MCF7 cells assessed as cell viability at 60 uM after 36 hrs by MTT assay (Rvb =100%); type: functional; settings: MCF7, 36 h, read-out: Activity

O=C1CC[C@H](O)c2cccc(O)c21
viability at 20 µM (MCF7 [1]): 97%
inhibition [2]: Active
Activity (MCF7 [3]): Dose-dependent effect
Ki (Caspase-3): 732 µM
Activity (MCF7 [4]): Dose-dependent effect
Activity (MCF7 [5]): Dose-dependent effect
inhibition (MCF7 [6]): inactive
inhibition (MCF7 [7]): Dose-dependent effect
Activity (MCF7 [8]): Dose-dependent effect
inhibition (MCF7 [9]): Active
inhibition (MCF7 [10]): Active
inhibition (MCF7 [11]): Dose-dependent effect
inhibition (MCF7 [12]): Active
inhibition [13]: Active
Activity (MCF7 [14]): Active
Ki [15]: 475 µM
viability at 20 µM (MCF7 [16]): 87%
inhibition (MCF7 [17]): tde
Activity (MCF7 [18]): Dose-dependent effect
inhibition (MCF7 [19]): Dose-dependent effect
Activity (MCF7 [20]): Dose-dependent effect
viability at 40 µM (MCF7 [21]): 66%
Activity (MCF7 [22]): Active
inhibition (MCF7 [23]): Active
viability at 40 µM (MCF7 [24]): 89%
Activity (MCF7 [25]): Dose-dependent effect
Activity (MCF7 [26]): Active
Activity (MCF7 [27]): Dose-dependent effect
viability at 60 µM (MCF7 [28]): 70%
inhibition [29]: Dose-dependent effect
Activity (MCF7 [30]): Active
inhibition [31]: Active
inhibition (MCF7 [32]): Active
viability at 60 µM (MCF7 [33]): 50%
